Common to all, as to assay type: cell-based
In test [1] the test system is Panc1 cells (human pancreatic cancer). Description: MTT cytotoxicity assay, Panc1. The procedure:
(§1) Having obtained a series of structurally diverse OA-dithiocarbamates, we next performed a systematic biological evaluation to examine whether introducing an extra dithiocarbamate group could improve antitumor activities. These compounds were evaluated by MTT assay against human pancreatic cancer (Panc1), human lung cancer (A549), human hepatoma cell (Hep3B), human hepatoma cell (Huh-7), human colon cancer (HT-29), and human cervical cancer (Hela) cells, with the widely used anticancer drugs fluorouracil, docetaxel, and cisplatin as positive controls (Table 2). […] Moreover, the cytotoxicities of compounds 3a-3t were also evaluated in human normal hepatocytes (LO2) to determine whether these compounds preferred killing tumor cells over normal cells.
(§2) The optical density at 490 nm of each well was measured using a microplate reader (Molecular devices corporation, Sunnyvale, CA. USA) to calculate the percent of cell viability. The inhibition rates were calculated using GraphPad Prism 7.0 software. The seven tested cell lines were obtained from the laboratory of Molecular Pharmacology, Department of Pharmacology, School of Pharmacy, Southwest Medical University.
(§3) The in vitro cytotoxic activities of the compounds were evaluated by MTT assay against Panc1, A549, Hep3B, Huh-7, HT-29, Hela, LO2. Cell lines were obtained from the Laboratory of Molecular Pharmacology, Southwest Medical University. Briefly, different tumor cells grew in DMEM medium except for A549, which used 1640 medium. Cells ((3–5) × 10^3 cells/well) were harvested at the log phase of growth and seeded in 96-well plates. After 24 h incubation at 37 °C in 5% CO2 to allow cell attachment, cultures were exposed to various concentrations of the isolated compounds for 48 h. Finally, the MTT solution was added. Plates were further incubated for 4 h at 37 °C after adding 150 µL/well of DMSO and shaking for 10 min on the shaker platform. The plates were read in a 96-well plate reader at 490 nm wavelength. The results were expressed as IC50 values, and were defined as the concentration at which 50% survival of cells was obtained. Fluorouracil, docetaxel, and cisplatin were co-assayed as positive controls.
Background: Tetrazolium assays rely on reduction of a dye to a coloured formazan, in cell work by metabolically active cells.

The subject of test [2] is A549 cells (human lung cancer). The test can be described thus: MTT cytotoxicity assay, A549. The settings on record: 48 h exposure. The procedure: as §1, §2, §3
Test [3] concerns Hep3B cells (human hepatoma cell). Description: MTT cytotoxicity assay, Hep3B. The settings on record: 48 h exposure. The procedure:
as §1, §2, §3

For test [4], the system named is Huh-7 cells (human hepatoma cell). Description: MTT cytotoxicity assay, Huh-7. The settings on record: Huh-7, MTT, 48 h exposure. The procedure: as §1, §2, §3
The test system of test [5] is Hela cells (human cervical cancer). Description: MTT cytotoxicity assay, Hela. The settings on record: 48 h exposure. The procedure:
as §1, §2, §3

Test [6] relates to LO2 cells (human normal hepatocytes). Description: MTT cytotoxicity assay, LO2 normal cells. The procedure:
as §1, §2, §3

Test [7] relates to HT-29 cells (human colon cancer). Description: MTT cytotoxicity assay, HT-29. The settings on record: HT-29, MTT, 48 h exposure. The procedure:
as §1, §2, §3

Setting [8] is: Homo sapiens, PANC-1, 48 h exposure.

The text below walks through data of paper PMC9920998, “Synthesis of Oleanolic Acid-Dithiocarbamate Conjugates and Evaluation of Their Broad-Spectrum Antitumor Activities” (Molecules, 2023).

SMILES strings stand for the structures.

With `CC1(C)CC[C@]2(C(=O)OCCSC(=S)N3CCCC3)CC[C@]3(C)C(=CC[C@@H]4[C@@]5(C)CC[C@H](O)C(C)(C)[C@@H]5CC[C@]43C)[C@@H]2C1` [3a, [2-((pyrrolidine-1-carbonothioyl)thio)ethyl] 3-hydroxy-12-en-28-oic acid], the IC50 in test [1] (setting [8]) is more than 200 µM; in test [2] (Homo sapiens), 92.1 µM; in test [3] (Homo sapiens), more than 200 µM; in test [4] (Homo sapiens), 145 µM; in test [5] (Homo sapiens), 89.4 µM; in test [6] (L02, 48 h exposure), 113 µM.
As to `O=c1[nH]cc(F)c(=O)[nH]1` [5-fluorouracil], the concentration for half-maximal inhibition (IC50) in test [1] (setting [8]) is 160 µM; in test [2] (Homo sapiens), 125 µM; in test [3] (Homo sapiens), 152 µM; in test [4] (Homo sapiens), 140 µM; in test [7] (Homo sapiens), 93.3 µM; in test [5] (Homo sapiens) it was 130 µM. The compound also displayed an IC50 in test [6] (L02, 48 h exposure) of 109 µM.
`N.N.[Cl][Pt][Cl]` [Cisplatin]: the IC50 is more than 200 µM in test [1] (48 h exposure); more than 200 µM in test [2]; more than 200 µM in test [3]; more than 200 µM in test [4]; more than 200 µM in test [7]; 142 µM in test [5]. For the same compound, in test [6] (48 h exposure), the half-inhibitory concentration (IC50) was more than 200 µM.
Take `CC(=O)O[C@@]12CO[C@@H]1C[C@H](O)[C@@]1(C)C(=O)[C@H](O)C3=C(C)[C@@H](OC(=O)[C@H](O)[C@@H](NC(=O)OC(C)(C)C)c4ccccc4)C[C@@](O)([C@@H](OC(=O)c4ccccc4)[C@H]21)C3(C)C` [Docetaxel]: the IC50 in test [1] (setting [8]) was more than 200 µM; in test [2] (Homo sapiens), more than 200 µM; in test [3] (Homo sapiens), 172 µM; in test [4] (Homo sapiens) it was 104 µM; in test [7] (Homo sapiens), more than 200 µM; in test [5] (Homo sapiens), 135 µM. Besides, in test [6] (L02, 48 h exposure), the midpoint of inhibition, the IC50, lay at 140 µM.
Consider `CC1(C)CC[C@]2(C(=O)O)CC[C@]3(C)C(=CC[C@@H]4[C@@]5(C)CC[C@H](O)C(C)(C)[C@@H]5CC[C@]43C)[C@@H]2C1` [OA, oleanolic acid], for which the IC50 in test [1] (setting [8]), in test [2] (Homo sapiens), in test [3] (Homo sapiens), in test [4] (Homo sapiens), in test [7] (Homo sapiens) and in test [5] (Homo sapiens) was more than 200 µM in each case. Moreover, the midpoint of inhibition in test [6] (L02, 48 h exposure), the IC50, lay at 140 µM.

The IC50 is the midpoint of a concentration-inhibition curve. Read a high IC50 as weaker potency in that assay.
